Data as given in patent US9139596B2, “Cyclic prodrugs of duocarmycin analogs” (The Scripps Research Institute, priority 2012, dated 2015).
Like-named read-outs stand apart in the source and are kept apart here.

What was measured:
Solvolysis of 21 = format: physicochemical; details: 25° C., UV 255 nm; for half-life: CH3OH / aqueous citrate-phosphate buffer, read-out: solvolysis t1/2 (converted); for solvolysis rate constant k: CH3OH
Method: Compound 21 was dissolved in CH3OH (1.5 mL). […] After mixing, the solvolysis solutions were stoppered and kept at 25° C. in the dark. The UV spectrum of the solutions was measured 3-4 times in the first two days and once a day for 2-4 weeks. The UV monitoring was continued until no further change was detectable. The long-wavelength absorption at 380 nm and short-wavelength absorption at 255 nm were monitored. The solvolysis rate constant and half-life were calculated from the data recorded at the short wavelength (255 nm) from the least square treatment of the slopes of plots of time versus ln [(AFinal−Ainitial)/(Afinal−A)].

[1] = tested on: L1210 murine leukemia cell line; assay: In vitro cytotoxic activity (cell growth inhibition), L1210; format: cell-based
Method: In Vitro Cytotoxic Activity. Both (+)- and ent-(−)-6 and their N-Boc precursors 16 were tested for cell growth inhibition in a cytotoxic assay with the L1210 murine leukemia cell line.

[2] = tested on: L1210 murine leukemia cells implanted ip; assay: In vivo antitumor activity (L1210, ip); details: for Surviving Mice: live animals after 250 days
Method: Therefore, the in vivo antitumor activity of (+)-6 was assessed alongside seco-CBI-indole2 (4) in an antitumor model consisting of L1210 murine leukemia cells implanted ip into […] which has been used historically as an initial antitumor model for comparisons in this class.^11,12,14,15 A dose range of 300 to 9000 μg/kg for prodrug (+)-6 (scaled to its in vitro cytotoxic activity IC50) and 60 to 500 μg/kg for seco-CBI-indole2 (4) and a dosing schedule (administered three times ip on days 1, 5, and 9) for both compounds was employed.
B6D2F1 mice were injected intraperitoneal (i.p.) with syngeneic L1210 cells (1×10^6) on day 0. Ten mice were randomly assigned to control vehicle or treatment groups for compounds (+)-4 and (+)-6 at doses of 60, 100, 250, and 500 μg/kg/inj for (+)-4 or 300, 1000, 3000, and 9000 μg/kg/inj for (+)-6. Compounds (+)-4 and (+)-6 were formulated in 100% DMSO, and injected i.p. on study days 1, 5, and 9. Following injection of tumor cells, animals were monitored daily and weighed two times per week. Percent survival (T/C) for treated and control groups were determined by dividing the total survival days for each treatment group by the total survival days for the control group and multiplying ×100. All animal studies were carried out in the animal facilities of The University of Kansas Medical Center with strict adherence to the guidelines of the IACUC Animal Welfare Committee of KUMC (IACUC approval #2009-1837).

[3] = tested on: L1210 murine leukemia cells implanted ip; details: previously established; cited from earlier work
[4] = human, plasma; cited from earlier work
[5] = calf serum; cited from earlier work
[6] = tested on: L1210 murine leukemia cell line; details: L1210, natural enantiomer, literature ref 9; cited from earlier work
[7] = Chemical reactivity of N-Boc-prodrug 16 under acidic, basic and nucleophilic conditions; format: physicochemical
Method: In order to determine the ability of the free drug to be released under physiological conditions, the chemical reactivity of N-Boc-prodrug 16 was assessed under a variety of acidic, basic, and nucleophilic conditions.

[8] = pH 1 buffer (: 0.2 M Na2HPO4: H2O 4:1:20)
[9] = pH 2 buffer (1.0 M citric acid: 0.2 M Na2HPO4: H2O 4:1:20)
[10] = 60 μg/kg i.p. on days 1, 5, and 9
[11] = 100 μg/kg i.p. on days 1, 5, and 9
[12] = 250 μg/kg i.p. on days 1, 5, and 9
[13] = 500 μg/kg i.p. on days 1, 5, and 9
[14] = Mus musculus, L1210, read-out: In vitro IC50 L1210 natural, natural (S)-enantiomer, Table 4
[15] = Mus musculus, L1210, read-out: In vitro IC50 L1210 unnatural, unnatural (R)-enantiomer, Table 4
[16] = natural (S)-enantiomer, Table 4
[17] = Mus musculus, L1210, read-out: IC50 L1210 natural, natural enantiomer, Table 2
[18] = Mus musculus, L1210, read-out: IC50 L1210 unnatural, unnatural enantiomer, Table 2

CC(C)(C)OC(=O)N1CC2CC23C1=CC(=O)c1c(N)cccc13 (stereo not drawn) [Compound 21, N-tert-Butyloxycarbonyl-5-amino-1,2,9,9a-tetrahydrocyclopropa[c]benzo[e]indole-4-one]
half-life (Solvolysis of 21; [8]): 8.52 h
half-life (Solvolysis of 21; [9]): 40.3 h
solvolysis rate constant k (Solvolysis of 21; [8]): 1.5e-05 s⁻¹
solvolysis rate constant k (Solvolysis of 21; [9]): 5e-06 s⁻¹

O=C(Nc1ccc2[nH]c(C(=O)N3C[C@@H](CCl)c4c3cc(O)c3ccccc43)cc2c1)c1cc2ccccc2[nH]1 [Compound 4, seco-CBI-indole2, reference compound]
IC50 ([1]; L1210, free drug, natural enantiomer, read-out: IC50): 0.03 nM
IC50 ([1]; natural (S)-enantiomer, Table 4, read-out: In vitro IC50 L1210 natural): 0.03 nM
IC50 ([1]; natural enantiomer, Table 2, read-out: IC50 L1210 natural): 0.03 nM
IC50 ([1]; unnatural (R)-enantiomer, Table 4, read-out: In vitro IC50 L1210 unnatural): 0.9 nM
IC50 ([1]; unnatural enantiomer, Table 2, read-out: IC50 L1210 unnatural): 0.9 nM
MSP (Mean Survival Period) [2, 10]: >34.7 days
T/C (Treated/Control MSP x 100) [2, 10]: >197
Surviving Mice [2, 10]: 1/10
MSP (Mean Survival Period) [2, 11]: 6.4 days
T/C (Treated/Control MSP x 100) [2, 11]: 36
Surviving Mice [2, 11]: 0/10
MSP (Mean Survival Period) [2, 12]: 3.7 days
T/C (Treated/Control MSP x 100) [2, 12]: 21
Surviving Mice [2, 12]: 0/10
MSP (Mean Survival Period) [2, 13]: 3.0 days
T/C (Treated/Control MSP x 100) [2, 13]: 17
Surviving Mice [2, 13]: 0/10
toxicity leading to premature death of the animals ([2]; doses of 100-500 μg/kg i.p. on days 1, 5, and 9): toxic
optimal dose range [3]: 0.06 to 0.1 mg/kg

Nc1cccc2c1C(=O)C=C1N(C(=O)c3cc4cc(NC(=O)c5cc6ccccc6[nH]5)ccc4[nH]3)CC3CC123 (stereo not drawn) [Compound 20, N-(2-(5-Amino-4-oxo-1,2,9,9a-tetrahydrocyclopropa[c]benzo[e]indole-2-carbonyl)-1H-indol-5-yl)-1H-indole-2-carboxamide]
fold less active than 4 (active enantiomer) ([1]; L1210, inferred from the racemate IC50): 3-4 fold
IC50 ([1]; L1210, racemic parent drug, read-out: IC50): 0.21 nM

CCN(CC)c1ccc2cc(C(=O)Nc3ccc4[nH]c(C(=O)N5C[C@@H](CCl)c6c5cc(OC(=O)Nc5ccccc5)c5[nH]cc(C)c65)cc4c3)oc2c1 [carzelesin]
t1/2 [4]: < 1 h

COc1c(O)c2c(c3cc(C(=O)N4CCc5c4c(O)c(OC)c4[nH]c(C(=O)N6CC7CC78C6=CC(=O)c6[nH]cc(C)c68)cc54)[nH]c13)CCN2C(N)=O (stereo not drawn) [Compound 2, CC-1065, reference compound]
IC50 ([1]; Mus musculus, L1210, natural (S)-enantiomer, Table 4, read-out: In vitro IC50 L1210 natural): 0.02 nM
IC50 ([1]; Mus musculus, L1210, natural enantiomer, Table 2, read-out: IC50 L1210 natural): 0.02 nM
IC50 ([1]; Mus musculus, L1210, unnatural (R)-enantiomer, Table 4, read-out: In vitro IC50 L1210 unnatural): 0.02 nM
IC50 ([1]; Mus musculus, L1210, unnatural enantiomer, Table 2, read-out: IC50 L1210 unnatural): 0.02 nM

COC(=O)c1c(C)[nH]c2c(OC(=O)N3CCN(C)CC3)cc3c(c12)[C@H](CBr)CN3C(=O)c1cc2cc(OC)c(OC)c(OC)c2[nH]1 [KW-2189]
t1/2 [5]: 20 h

CC(C)(C)OC(=O)N1CC2CC23C1=CC(=O)c1ccccc13 (stereo not drawn) [N-Boc-CBI]
IC50 [6]: 80 nM

O=C(Nc1ccc2[nH]c(C(=O)N3C[C@@H](CCl)c4c3cc3c5c(cccc45)N=C(SCCN4C(=O)c5ccccc5C4=O)O3)cc2c1)c1cc2ccccc2[nH]1 [Compound 29, (S)—N-(2-(10-(chloromethyl)-5-((2-(1,3-dioxoisoindolin-2-yl)ethyl)thio)-9,10-dihydro-8H-pyrrolo[3′,2′:5,6]naphtho[1,8-de][1,3]oxazine-8-carbonyl)-1H-indol-5-yl)-1H-indole-2-carboxamide]
IC50 [1, 14]: < 100 nM
IC50 ([1]; read-out: In vitro IC50 L1210 natural, natural (S)-enantiomer, Table 4): 83.6 nM

O=C(Nc1ccc2[nH]c(C(=O)N3C[C@@H](CCl)c4c3cc3c5c(cccc45)NC(=S)O3)cc2c1)c1cc2ccccc2[nH]1 [Compound 25, (S)—N-(2-(10-(chloromethyl)-5-thioxo-5,8,9,10-tetrahydro-4H-pyrrolo[3′,2′,5,6]naphtho[1,8-de][1,3]oxazine-8-carbonyl)-1H-indol-5-yl)-1H-indole-2-carboxamide]
IC50 [1, 14]: 0.29 nM
IC50 [1, 15]: 62 nM
In vitro IC50 L1210 natural [1, 16]: in the nanomolar range

CC(C)(C)OC(=O)N1C[C@@H](CCl)c2c1cc1c3c(cccc23)NC(=O)O1 [Compound 16, tert-Butyl 10-(Chloromethyl)-5-oxo-9,10-dihydro-4H-pyrrolo[3′,2′:5,6]naphtho[1,8-de][1,3]oxazine-8(5H)-carboxylate]
fold less active than N-Boc-CBI ([1]; L1210): 50-100 fold
IC50 [1, 17]: 4900 nM
IC50 [1, 18]: 5800 nM
stability of the cyclic carbamate to hydrolysis under acidic conditions ([7]; 1:1 TFA:CH2Cl2, 4 N HCl in EtOAc, 48 h at 23° C., Boc group cleaved): stable
stability to BnNH2 ([7]; BnNH2 (100 equiv) in MeOH, 24 h): rapidly cleaved
stability to BnNH2 ([7]; BnNH2 in THF): stable
stability in the presence of nucleophiles BnSH and BnOH ([7]; BnSH and BnOH (100 equiv) in MeOH and THF at 23° C. for 48 h): completely stable

N=C1Nc2cccc3c4c(cc(c23)O1)N(C(=O)c1cc2cc(NC(=O)c3cc5ccccc5[nH]3)ccc2[nH]1)C[C@H]4CCl [Compound 24, (S)—N-(2-(10-(chloromethyl)-5-imino-5,8,9,10-tetrahydro-4H-pyrrolo[3′,2′,5,6]naphtho[1,8-de][1,3]oxazine-8-carbonyl)-1H-indol-5-yl)-1H-indole-2-carboxamide]
IC50 [1, 14]: 0.5 nM
IC50 [1, 15]: 64 nM
In vitro IC50 L1210 natural [1, 16]: in the nanomolar range

COC(=O)c1cc2c([nH]1)C(=O)C=C1N(C(=O)c3cc4cc(OC)c(OC)c(OC)c4[nH]3)CC3CC123 (stereo not drawn) [Compound 1, Duocarmycin SA, reference compound]
IC50 [1, 17]: 0.01 nM
IC50 [1, 18]: 0.1 nM
IC50 [1, 14]: 0.01 nM
IC50 [1, 15]: 0.1 nM
